Measurements from patent US20230338391A1, “TREATMENT FOR DEPRESSION” (TAKEDA PHARMACEUTICAL COMPANY LIMITED, priority 2020, published 2023).
Like-named read-outs stand apart in the source and are kept apart here.

Legend:
[1] = 13-week NHP GLP toxicity study: clinical signs, EEG/EMG telemetry, pathology; assay type: in vivo, Monkey (Macaca fascicularis); conditions: cynomolgus monkey, in vivo, oral gavage once daily, 13 weeks, read-out: no-observed-adverse-effect level (NOAEL)
Method: (§1) The appropriate volume of reverse osmosis water was added into a suitable sized container and heated between 70° C. and 90° C. An appropriate amount of MC (METOLOSE SM-100, Shin-Etsu Chemical Co Ltd) was weighed and transferred (while stirring) to the container with heated reverse osmosis water. The solution was cooled down until a clear solution was obtained (an ice bath was used). The solution was stored refrigerated (set to 2-8° C.) until used. Unused reference item/vehicle was discarded when not needed anymore. To make a 0.2 w/v % suspension of COMPOUND A, an appropriate amount of the test item was weighed. A small volume of vehicle was added to slowly wet the test item. The appropriate volume of vehicle was added to reach the final volume and the formulation was homogenized using a homogenizer until a uniform suspension was achieved and stirred for 30 to 59 minutes. The 0.2 w/v % suspension was then diluted with the 0.5 w/v % MC in reverse osmosis water solution to make 0.12, 0.06 and 0.006 w/v % suspensions. However, on Oct. 1, 2015, the 1.2 mg/mL formulation was prepared by dissolving the appropriate amount of COMPOUND A in the vehicle, instead of diluting the 2 mg/mL formulation to reach the appropriate concentration. This deviation had no impact on the study since the appropriate concentration was prepared.
(§2) After suitable acclimation to the dosing procedure, the reference item (0.5% methylcellulose (MC) in reverse osmosis water) was administered once by oral gavage during Phase 1 of the study. The objective of Phase 1 was to confirm the EEG morphologies in all animals before and after dosing procedures. The traces generated during Phase 1 were used for interpretation of Phase 2 data. Beginning 1 day later, the reference item or COMPOUND A was administered once daily by oral gavage for 90 days during Phase 2 as shown in Table 7.
(§3) Clinical signs (ill health, behavioral changes, etc.) were recorded on surviving animals twice daily during all phases of study and monitored continuously for at least 16 hours after the 1st, 3rd, 7th, 14th and 28th dose administration in Phase 2, using digital cameras (to minimize stress for the animals) or using direct observation when needed or during dose administration. Additional clinical observations were performed when deemed necessary.
(§4) EEGs and EMGs were obtained from the animals using telemetry transmitter leads inserted subcutaneously using bipolar derivations (EMG, C4-O2 and Cz-Oz).
(§5) EEG and EMG monitoring was recorded continuously (except during study designated procedures or other procedures such as data backup) from at least 72 hours prior to the first dose of Phase 1 to at least 24 hours after the 28th dose of Phase 2. EEG and EMG monitoring was also recorded continuously (except during study designated procedures or other procedures such as data backup) for a period of at least 36 hours (from at least 12 hours prior to dosing until at least 24 hours post-dosing) once in the 8th week of dosing and once towards the end of the dosing period (13th week of dosing) in Phase 2.
(§6) Using the NeuroScore software (Data Science International), EEGs were analyzed from at least 24 hours prior to the first dose of Phase 1 to at least 24 hours after the 28th dose in Phase 2, and for a period of at least 36 hours (from at least 12 hours prior to dosing until at least 24 hours post-dosing) once in the 8th week of dosing and once towards the end of the dosing period (13th week of dosing) in Phase 2. […] EMGs were used to aid in the interpretation of the EEG data.
(§7) EEGs were reviewed by the Neurologist at the following timepoints: 1-1.5, 2.5-5.5, and 7-7.5 hours following the 1st, 3rd, 7th, 14th and 28th dose administration in Phase 2. The observance of abnormal behaviors/convulsions in individual animals by laboratory personnel also triggered an EEG review for approximately the same time period during which the abnormal behavior was witnessed. […]

cynomolgus monkeys = assay: as above; assay type: in vivo, Monkey (Macaca fascicularis)
Method: as §1, §2, §3, §4, §5, §6, §7

CC1=CN2CCS(=O)(=O)N=C2C(c2ccc(OC3CCCCC3)cc2)=N1 [COMPOUND A, 9-[4-(Cyclohexyloxy)phenyl]-7-methyl-3,4-dihydropyrazino[2,1-c][1,2,4]thiadiazine 2,2-dioxide]
NOAEL at 13 weeks ([1]; female, females): 3 mg/kg/day | NOAEL at 13 weeks ([1]; male, males): 10 mg/kg/day | qEEG total power (cynomolgus monkeys; 0.3 and 3 mg/kg/day, after 2nd and 27th dose): associated with an increase in total EEG power | clinical signs and EEG (cynomolgus monkeys; 0.3 or 3.0 mg/kg/day, males or females): no adverse clinical signs or abnormal EEG changes | clinical signs (cynomolgus monkeys; females, 6.0 mg/kg/day): myoclonic jerks, decreased activity, weakness, and uncoordination were observed | clinical signs (cynomolgus monkeys; females, 10.0 mg/kg/day): salivation, excessive licking, decreased activity, weakness, lying on cage floor, nystagmus, uncoordination, muscle twitches and myoclonic jerks were observed | generalized seizures (EEG) (cynomolgus monkeys; females, 10.0 mg/kg/day): Self-limiting generalized seizures, confirmed by EEG, were observed in two female monkeys | clinical signs (cynomolgus monkeys; males, 10 mg/kg/day): decreased activity, tremors and circling were observed at 10 mg/kg/day but were not considered adverse
